This is an account of results in patent publication EP0450066B1, “CARBOSTYRIL DERIVATIVES” (OTSUKA PHARMACEUTICAL CO., LTD., priority 1988, dated 1989).

Counter-ions that a name gives are not always drawn. Like-named read-outs stand apart in the source and are kept apart here.

For one series, the system named is platelets. Nature of the series: Platelet aggregation inhibitory activity (method by Born et al., platelet rich plasma, ADP or collagen as inducer). Conditions: rabbit PRP, 400,000 platelets/µl, 37°C. The format is cell-based. As for the experimental part:
This sample was subjected to centrifugation at 1,100 rpm for 10 minutes to obtain a platelet rich plasma (PRP). The remaining sample was subjected to further centrifugation at 3,000 rpm for 15 minutes to obtain a platelet poor plasma (PPP).
The number of platelets in the PRP obtained above was counted by coulter Counter manufactured by Coulter Electronics Inc. Then, the PRP was diluted with the PPP so that the number of platelets in the PRP after dilution became 400,000 platelets/µl, whereby a PRP solution was prepared.
There were placed in a cell for aggregation determination, 2 µl of a solution containing a test compound at a given concentration and 200 µl of the PRP solution prepared above. The cell was heated at 37°C for 1 minute. Then, to the cell contents was added 20 µl of adenosine diphosphate (ADP, manufactured by Sigma Co.) or 20 µl of a collagen suspension (Collagen Reagent Horm, manufactured by Hormon-Chemie Co.) to induce aggregation of platelets. Then, the platelet aggregation was determined for change in transmittance, and a platelet aggregation curve was drawn.
The mixture aggregation rate (MAR) of platelets was calculated from the platelet aggregation curve, using the following formula.
In the above, MAR was calculated also for a control containing no test compound. Using this MAR as a base, the platelet aggregation inhibitions rate (%) of each test compound at various concentrations were calculated from the following formula. Inhibition rate (%) = [1-(MAR of test compound-containing PRP)/(MAR of test compound-free PRP)] x100 [formula]

The next series deals with mongrel dogs. The series is described as follows: Increase in heart rate in anesthetized mongrel dogs. The format is in vivo. To be noted: mongrel dogs under pentobarbital sodium anesthesia, artificial breathing; 30 µg/kg through cannula in femoral artery. As for the experimental part:
Increase in heart rate as well as hypotensive activity of test compounds were measured as follows by using mongrel dogs (body weight = 10-20 kg). That is, mongrel dogs were put under anesthesia by intravenous administration of pentobarbital sodium, then fixed at the back position, and subjected to testing under artificial breathing condition. Blood pressure was measured by using a blood pressure transducer (P23XL, manufactured by Gould Statham Instruments, Inc.) via a cannula inserted into the femoral artery of the mongrel dog. Heart rate was measured via a tachometer, based on the pulse wave of the blood pressure. These signals were recorded on a thermal-pen type recorder (Recti-Horiz 8K, manufactured by Nihon Denki San-ei).
The test compounds mentioned in the Pharmacological Test I were also used as test compounds in this Test-II. Each of them was dissolved in a mixed solution of N,N'-dimenthylformamide and a physiological saline solution, and each resulting solution was administered to the test dogs through the cannulas inserted into their femoral arteries, in an amount of 30 µg (test compound)/kg of body weight. The heart rate of each dog after the administration of test compound was measured as mentioned above, whereby the maximum increase in heart rate was obtained.

Where [1] appears, read: Oryctolagus cuniculus, Platelet, aggregation induced by ADP, final concentration 7.5 µM, read-out: IC50 (µM) ADP.
[2] abbreviates: Oryctolagus cuniculus, Platelet, aggregation induced by collagen, final concentration 20 µg/ml, read-out: IC50 (µM) Collagen.
Setting [3] is: aggregation induced by ADP, final concentration 7.5 µM, read-out: IC50 (µM) ADP.
Setting [4] is: aggregation induced by collagen, final concentration 20 µg/ml, read-out: IC50 (µM) Collagen.

The IC50 is the midpoint of a concentration-inhibition curve. Take `CCN(CC)C(=O)CN(CC1CCCCCCC1)C(=O)CCCCOc1ccc2[nH]c(=O)ccc2c1` [Example 19]: the half-inhibitory concentration (IC50) in the series on platelets (setting [1]) is 1.5 µM; in the series with platelets (setting [2]), 0.71 µM.
Take `O=C(CCCCOc1ccc2[nH]c(=O)ccc2c1)N(CCN1CCC(O)C1)CC1CCCCCCC1.O=C(O)C(=O)O` (stereo not drawn) [Example 6]: the IC50 amounted to 3.5 µM in the series on platelets (setting [3]) and 1.3 µM in the series on platelets (setting [4]). Besides, in the series with mongrel dogs, the “Maximum increase in heart rate (beats/min) (Administration amount = 30 µg/kg)” value stood at 5 beats/min.
On to `CC(=O)NCCN(CC1CCCCCCC1)C(=O)CCCCOc1ccc2[nH]c(=O)ccc2c1` [Test compound 24, 6-{4-[N-cyclooctylmethyl-N-(2-acetylaminoethyl)-aminocarbonyl]butoxy}carbostyril], for which the 50% inhibitory concentration (IC50) in the series on platelets (aggregation induced by ADP, final concentration 7.5 µM, listed as 42, read-out: IC50 (µM) ADP) came out at 1.9 µM; in the series on platelets (aggregation induced by collagen, final concentration 20 µg/ml, listed as 42, read-out: IC50 (µM) Collagen) it was 1.6 µM.
For `CCN(CC)C[C@H](C)N(CC1CCCCCCC1)C(=O)CCCCOc1ccc2[nH]c(=O)ccc2c1` [Example 21], the results for the IC50 in the series with platelets (setting [1]) and in the series on platelets (setting [2]) were 5.4 µM and 3.2 µM, respectively. Further, the “Maximum increase in heart rate (beats/min) (Administration amount = 30 µg/kg)” value in the series with mongrel dogs is 7 beats/min.
Consider `CC1CCCC(C)N1CCN(CC1CCCCCCC1)C(=O)CCCCOc1ccc2[nH]c(=O)ccc2c1` (stereo not drawn) [Example 9], for which the figures for the concentration for half-maximal inhibition (IC50) in the series with platelets (setting [3]) and in the series with platelets (setting [4]) were 4.5 µM and 1.6 µM, respectively. Moreover, in the series on mongrel dogs, the “Maximum increase in heart rate (beats/min) (Administration amount = 30 µg/kg)” value came to 0 beats/min.
In the case of `O=C(CCCCOc1ccc2[nH]c(=O)ccc2c1)N(CCN1CCOCC1)CC1CCCCCCC1` [Example 7], the IC50 in the series with platelets (setting [3]) amounted to 1.5 µM; in the series with platelets (setting [4]), 0.65 µM.
For the molecule `O=C(CCCCOc1ccc2[nH]c(=O)ccc2c1)N(CCSC1CCCCO1)CC1CCCCC1` (stereo not drawn) [Example 45], the IC50 with platelets (setting [1]) and in the series on platelets (setting [2]) was 2.2 µM throughout.
Regarding `O=C(CCCCOc1ccc2[nH]c(=O)ccc2c1)N(CCN1CCC(O)C1)CC1CCCCCCC1` (stereo not drawn) [Test compound 6, 6-[4-{N-cyclooctylmethyl-N-[2-(3-hydroxy-1-pyrrolidinyl)ethyl]aminocarbonyl}butoxy]carbostyril oxalate], the IC50 in the series with platelets (setting [1]) was determined as 1.7 µM; in the series with platelets (setting [2]), 0.5 µM.
As to “6-[4-{N-cyclohexylmethyl-N-[2-(1-pyrrolidinyl)-ethyl]aminocarbonyl}butoxy]carbostyril [Example 1]”, the IC50 was determined as 3.4 µM in the series on platelets (setting [3]) and 1.1 µM in the series on platelets (setting [4]).
With `O=C(CCCCOc1ccc2[nH]c(=O)ccc2c1)N(CCS)CC1CCCCC1` [Example 44], the half-maximal inhibitory concentration (IC50) amounted to 5 µM with platelets (setting [1]) and 3.6 µM in the series on platelets (setting [2]). In addition, in the series with mongrel dogs, the “Maximum increase in heart rate (beats/min) (Administration amount = 30 µg/kg)” value was determined as 11 beats/min.
As for `CC(=O)NCCN(CC1CCCCCCC1)C(=O)CCCCOc1ccc2[nH]c(=O)ccc2c1` [Example 24], the figures for the IC50 in the series on platelets (setting [1]) and in the series with platelets (setting [2]) were 2.2 µM and 1.3 µM, respectively.
The matching figures for `CSCCC(COC(C)=O)N(CC1CCCCC1)C(=O)CCCCOc1ccc2[nH]c(=O)ccc2c1` (stereo not drawn) [Example 47]: 0.63 µM and 0.49 µM.
For `C=CCN(CC)CCN(CC1CCCCCCC1)C(=O)CCCCOc1ccc2[nH]c(=O)ccc2c1` [Example 26], in that order: 3.6 µM and 1.3 µM.
For `CCN(CC)C[C@H](CO)N(CC1CCCCCCC1)C(=O)CCCCOc1ccc2[nH]c(=O)ccc2c1` [Example 22], in that order: 1.2 µM and 0.8 µM.
As to `O=C(CCCCOc1ccc2[nH]c(=O)ccc2c1)N(CCN1CCC(O)CC1)CC1CCCCCCC1` [Test compound 8, 6-[4-{N-cyclooctylmethyl-N-[2-(4-hydroxy-1-piperidinyl)ethyl]aminocarbonyl}butoxy]carbostyril], the IC50 in the series on platelets (setting [1]) amounted to 1.7 µM; in the series on platelets (setting [2]) it was 0.7 µM.
Regarding `CCN(CC)CCN(CC1CCCCCCC1)C(=O)CCCCOc1ccc2[nH]c(=O)ccc2c1` [Example 16], the IC50 worked out at 3 µM in the series on platelets (setting [1]) and 1.1 µM in the series with platelets (setting [2]). Further, the “Maximum increase in heart rate (beats/min) (Administration amount = 30 µg/kg)” value in the series with mongrel dogs came out at 7 beats/min.
On to `O=C(CCCCOc1ccc2[nH]c(=O)ccc2c1)N(CCN1CCCCC1CO)CC1CCCCCCC1` (stereo not drawn) [Example 4], for which the values for the IC50 with platelets (setting [3]) and in the series on platelets (setting [4]) were 2.7 µM and 1.6 µM, respectively. In addition, in the series on mongrel dogs, the “Maximum increase in heart rate (beats/min) (Administration amount = 30 µg/kg)” value is 6 beats/min.
For `CCN(CC)CCN(CC1CCCCCCC1)C(=O)CCCCOc1ccc2c(c1)CCC(=O)N2` [Example 20], in that order: 21.2 µM, 7 µM and 4 beats/min.
Regarding `CCN(CCO)CCN(CC1CCCCCCC1)C(=O)CCCCOc1ccc2[nH]c(=O)ccc2c1` [Example 25], the IC50 was found to be 2.1 µM in the series on platelets (setting [1]) and 1.4 µM in the series with platelets (setting [2]).
Regarding `CCN(CC)CCCCN(CC1CCCCCCC1)C(=O)CCCCOc1ccc2[nH]c(=O)ccc2c1.O=C(O)C(=O)O` [Test compound 18, 6-{4-[N-cyclooctylmethyl-N-(4-diethylaminobutyl)-aminocarbonyl]butoxy}carbostyril oxalate], the half-inhibitory concentration (IC50) was determined as 8.3 µM in the series with platelets (aggregation induced by ADP, final concentration 7.5 µM, listed as 29, oxalate, read-out: IC50 (µM) ADP) and 3.7 µM with platelets (aggregation induced by collagen, final concentration 20 µg/ml, listed as 29, oxalate, read-out: IC50 (µM) Collagen). For the same molecule, in the series on mongrel dogs, the “Maximum increase in heart rate (beats/min) (Administration amount = 30 µg/kg)” value is recorded as 2 beats/min.
On to `CCN(CC)CCCN(CC1CCCCCCC1)C(=O)CCCCOc1ccc2[nH]c(=O)ccc2c1` [Test compound 17, 6-{4-[N-cyclooctylmethyl-N-(3-diethylaminopropyl)-aminocarbonyl]butoxy}carbostyril oxalate], for which the concentration for half-maximal inhibition (IC50) was determined as 2.8 µM with platelets (aggregation induced by ADP, final concentration 7.5 µM, listed as 28, oxalate, read-out: IC50 (µM) ADP) and 1.2 µM in the series with platelets (aggregation induced by collagen, final concentration 20 µg/ml, listed as 28, oxalate, read-out: IC50 (µM) Collagen).
Take `O=C(CCCCOc1ccc2[nH]c(=O)ccc2c1)N(CCn1ccnc1)CC1CCCCC1` [Example 12]: the IC50 with platelets (setting [3]) stood at 6 µM; with platelets (setting [4]), 3.2 µM. For the same molecule, in the series on mongrel dogs, the “Maximum increase in heart rate (beats/min) (Administration amount = 30 µg/kg)” value was determined as 12 beats/min.
As to `CCN(CC)CCCN(CC1CCCCCCC1)C(=O)CCCCOc1ccc2[nH]c(=O)ccc2c1` [Example 17], the concentration for half-maximal inhibition (IC50) was 5 µM in the series on platelets (setting [1]) and 2.8 µM in the series with platelets (setting [4]).
As to “6-[4-(N-cyclooctylmethyl-N-diethylamidomethyl)-aminocarbonyl]butoxy}carbostyril [Test compound 19]”, the half-inhibitory concentration (IC50) with platelets (setting [3]) worked out at 2.1 µM; in the series with platelets (setting [4]) it was 1.3 µM.
For the molecule `CSCCC(CO)N(CC1CCCCC1)C(=O)CCCCOc1ccc2[nH]c(=O)ccc2c1` (stereo not drawn) [Example 46], the concentration for half-maximal inhibition (IC50) in the series with platelets (setting [1]) was 1.1 µM; in the series on platelets (setting [2]) it was 0.53 µM.
As to “6-[4-{N-cyclooctylmethyl-N-[2-(2β-dimethylamino-methyl-1-pyrrolidinyl)ethyl]aminocarbonyl}butoxy]-carbostyril difumarate [Test compound 10]”, the IC50 in the series on platelets (setting [3]) came out at 3.9 µM; with platelets (setting [4]), 1.8 µM.
As to `CCN(CC)CCCCN(CC1CCCCCCC1)C(=O)CCCCOc1ccc2[nH]c(=O)ccc2c1` [Example 18], the values for the half-maximal inhibitory concentration (IC50) with platelets (setting [1]) and in the series on platelets (setting [2]) were 6 µM and 4.8 µM, respectively. For the same molecule, the “Maximum increase in heart rate (beats/min) (Administration amount = 30 µg/kg)” value in the series on mongrel dogs was 5 beats/min.
As to `CCN(CC)CCN(CC1CCCCCCC1)C(=O)CCCCOc1ccc2c(c1)CCC(=O)N2` [Test compound 20, 6-{4-[N-cyclooctylmethyl-N-(2-diethylaminoethyl)-aminocarbonyl]butoxy}3,4-dihydrocarbostyril oxalate], the IC50 in the series with platelets (aggregation induced by ADP, final concentration 7.5 µM, listed as 34, oxalate, read-out: IC50 (µM) ADP) was found to be 0.84 µM; in the series with platelets (aggregation induced by collagen, final concentration 20 µg/ml, listed as 34, oxalate, read-out: IC50 (µM) Collagen), 0.48 µM.
